Source: ChEMBL document CHEMBL1275498, “Disposition, metabolism, and excretion of [14C]doripenem after a single 500-milligram intravenous infusion in healthy men” (Antimicrob Agents Chemother, 2008)

Tests used:
[1] = AUC (0 to infinity) in healthy man plasma at 500 mg, iv administered as 1 hr infusion by LC-MS/MS analysis; format: ADME, organism-based; set-up: dose 500 mg, time infinity, route intravenous; details: male, human
[2] = AUC (0 to infinity) in healthy man plasma assessed as total compound-derived radioactivity at 500 mg, iv administered as 1 hr infusion by Liquid scintillation counting; format: ADME, organism-based; set-up: dose 500 mg, route intravenous, time infinity; details: human, in vivo
[3] = Drug excretion in healthy man urine at 500 mg, iv administered as 1 hr infusion measured after 12 to 24 hrs by Liquid scintillation counting; format: ADME, organism-based; details: human, in vivo
[4] = AUC (last) in healthy man plasma assessed as doripenem-M-1 at 500 mg, iv administered as 1 hr infusion by LC-MS/MS analysis; format: ADME, organism-based; set-up: dose 500 mg, time 0 - last, route intravenous; details: human, in vivo
[5] = AUC (0 to infinity) in healthy man plasma assessed as doripenem-M-1 at 500 mg, iv administered as 1 hr infusion by LC-MS/MS analysis; format: ADME, organism-based; set-up: dose 500 mg, time infinity, route intravenous; details: human, in vivo
[6] = Drug excretion in healthy man urine at 500 mg, iv administered as 1 hr infusion measured after 4 hrs by Liquid scintillation counting; format: ADME, organism-based; details: human, in vivo
[7] = Tmax in healthy man plasma at 500 mg, iv administered as 1 hr infusion by LC-MS/MS analysis; format: ADME, organism-based; details: male, human
[8] = Clearance in healthy man plasma at 500 mg, iv administered as 1 hr infusion by LC-MS/MS analysis; format: ADME, organism-based; details: male, human
[9] = Elimination rate constant in plasma of healthy man assessed as doripenem-M-1, dosed at 500 mg, iv administered as 1 hr infusion; format: ADME, organism-based; details: human, in vivo
[10] = Drug excretion in healthy man urine at 500 mg, iv administered as 1 hr infusion measured after 7 days by Liquid scintillation counting; format: ADME, organism-based; details: human, in vivo
[11] = Drug excretion in healthy man feces at 500 mg, iv administered as 1 hr infusion measured after 7 days by Liquid scintillation counting; format: ADME, organism-based; details: human, in vivo
[12] = Drug excretion in healthy man urine at 500 mg, iv administered as 1 hr infusion measured after 4 to 8 hrs by Liquid scintillation counting; format: ADME, organism-based; details: human, in vivo
[13] = Drug excretion in healthy man urine at 500 mg, iv administered as 1 hr infusion measured after 8 to 12 hrs by Liquid scintillation counting; format: ADME, organism-based; details: human, in vivo
[14] = Cmax in healthy man plasma assessed as doripenem-M-1 at 500 mg, iv administered as 1 hr infusion by LC-MS/MS analysis; format: ADME, organism-based; set-up: dose 500 mg, route intravenous; details: human, in vivo
[15] = Elimination rate constant in plasma of healthy man dosed at 500 mg, iv administered as 1 hr infusion; format: ADME, organism-based; details: male, human
[16] = Renal clearance in healthy man assessed as doripenem-M-1, dosed at 500 mg, iv administered as 1 hr infusion; format: ADME, organism-based, Kidney; details: human, in vivo
[17] = AUC (last) in healthy man plasma at 500 mg, iv administered as 1 hr infusion by LC-MS/MS analysis; format: ADME, organism-based; set-up: dose 500 mg, time 0 - last, route intravenous; details: male, human
[18] = Renal clearance in healthy man dosed at 500 mg, iv administered as 1 hr infusion; format: ADME, organism-based, Kidney; details: male, human, in vivo
[19] = Tmax in healthy man plasma assessed as total compound-derived radioactivity at 500 mg, iv administered as 1 hr infusion by Liquid scintillation counting; format: ADME, organism-based; details: human, in vivo
[20] = Half life in healthy man plasma at 500 mg, iv administered as 1 hr infusion by LC-MS/MS analysis; format: ADME, organism-based; details: male, human
[21] = Cmax in healthy man whole blood assessed as total compound-derived radioactivity at 500 mg, iv administered as 1 hr infusion by Liquid scintillation counting; format: ADME, organism-based; set-up: dose 500 mg, route intravenous; details: human, in vivo
[22] = Cmax in healthy man plasma assessed as total compound-derived radioactivity at 500 mg, iv administered as 1 hr infusion by Liquid scintillation counting; format: ADME, organism-based; set-up: dose 500 mg, route intravenous; details: human, in vivo
[23] = Half life in healthy man plasma assessed as total compound-derived radioactivity at 500 mg, iv administered as 1 hr infusion by Liquid scintillation counting; format: ADME, organism-based; details: human, in vivo
[24] = AUC (last) in healthy man plasma assessed as total compound-derived radioactivity at 500 mg, iv administered as 1 hr infusion by Liquid scintillation counting; format: ADME, organism-based; set-up: dose 500 mg, time 0 - last, route intravenous; details: human, in vivo
[25] = Tmax in healthy man plasma assessed as doripenem-M-1 at 500 mg, iv administered as 1 hr infusion by LC-MS/MS analysis; format: ADME, organism-based; details: human, in vivo
[26] = Elimination rate constant in plasma of healthy man assessed as total compound-derived radioactivity, dosed at 500 mg, iv administered as 1 hr infusion; format: ADME, organism-based; details: human, in vivo
[27] = Half life in healthy man plasma assessed as doripenem-M-1 at 500 mg, iv administered as 1 hr infusion by LC-MS/MS analysis; format: ADME, organism-based; details: human, in vivo
[28] = Cmax in healthy man plasma at 500 mg, iv administered as 1 hr infusion by LC-MS/MS analysis; format: ADME, organism-based; set-up: dose 500 mg, route intravenous; details: male, human
[29] = AUC (last) in healthy man whole blood assessed as total compound-derived radioactivity at 500 mg, iv administered as 1 hr infusion by Liquid scintillation counting; format: ADME, organism-based; set-up: dose 500 mg, time 0 - last, route intravenous; details: human, in vivo
[30] = Drug excretion in healthy man urine at 500 mg, iv administered as 1 hr infusion measured after 0 to 12 hrs by Liquid scintillation counting; format: ADME, organism-based; details: human, in vivo
[31] = Tmax in healthy man whole blood assessed as total compound-derived radioactivity at 500 mg, iv administered as 1 hr infusion by Liquid scintillation counting; format: ADME, organism-based; details: human, in vivo

AUC(0-inf) [1]: 31800 ng·h/mL
AUC [2]: 39.5 µg·h/mL
Drug uptake [3]: 0.9%
AUC [4]: 4.03 µg·h/mL
AUC [5]: 4.98 µg·h/mL
Drug uptake [6]: 85.13%
Tmax [7]: 1.02 h
clearance [8]: 267 mL/min
kel [9]: 0.275 h⁻¹
Drug uptake [10]: 95.28%
Drug uptake [11]: 0.72%
Drug uptake [12]: 6.69%
Drug uptake [13]: 1.62%
Cmax [14]: 1.56 µg/mL
k el at 1 h [15]: 0.000183 s⁻¹
CLr [16]: 18.9 L/h
AUC(0-t) at 1 h [17]: 31500 ng·h/mL
CL renal at 1 h [18]: 208 mL/min
Tmax [19]: 1.02 h
half-life [20]: 64.2 min
Cmax [21]: 13.2 µg/mL
Cmax [22]: 22.1 µg/mL
t1/2 [23]: 1.59 h
AUC [24]: 37.5 µg·h/mL
Tmax [25]: 1.01 h
kel [26]: 0.438 h⁻¹
t1/2 [27]: 2.54 h
Cmax [28]: 22900 ng/mL
AUC [29]: 20.2 µg·h/mL
Drug uptake [30]: 93.44%
Tmax [31]: 1.02 h
SMILES: C[C@@H](O)[C@H]1C(=O)N2[C@@H]1[C@@H](C)C(S[C@@H]1CN[C@H](CNS(N)(=O)=O)C1)=[14C]2C(=O)O [[14C]-DORIPENEM]
